Test results reported in patent US8022047B2, “Combination anticancer agents” (Chugai Seiyaku Kabushiki Kaisha, priority 2005, dated 2011).
Where two headings read alike, the source gives them in different places.

Experiments:
[1] = tested on: human colorectal cancer HCT116 xenograft
Description: The human colorectal cancer cell line HCT116 was purchased from ATCC. Cells were monolayer cultured in McCoy's 5a medium containing 2 mM L-glutamine and 10% (v/v) fetal bovine serum.
Five-week old male athymic nude mice (BALB/c nu/nu) were purchased from Charles River Japan. The mice were reared for at least one week prior to the experiment at the animal facility of the research institute.
A single cell suspension of HCT116 (8×10^6 cells per mouse) was inoculated subcutaneously into the right side of the abdomen of each mouse. The tumor size of each mouse was measured twice a week and the tumor volume was estimated using the ab^2/2 formula (a and b refer to the length and width of the tumor, respectively). Randomization and administration pharmaceuticals were begun the day the tumor volume exceeded 100 mm^3
The dosage is as follows.
Capecitabine was dissolved and diluted in 40 mM citric acid buffer (pH6) containing 5% gum arabic.

[2] = tested on: human pancreatic cancer Capan-1 xenograft; details: mice; i.v. once a week for four consecutive weeks
Description: A single cell suspension of Capan-1 (8.4×10^6 cells per mouse) was inoculated subcutaneously into the right side of the abdomen of each mouse. The tumor size of each mouse was measured twice a week and the tumor volume was estimated using the ab^2/2 formula (a and b refer to the length and width of the tumor, respectively). Randomization and administration of pharmaceuticals were begun the day the tumor volume exceeded 100 mm^3
Gemcitabine was dissolved and diluted in physiological saline, and intravenously administered once a week for four consecutive weeks.
Gemcitabine was administered once a week for four consecutive weeks.

[3] = tested on: human lung cancer Calu-6 xenograft; experiment: Antitumor effect in xenograft model, compound 2A plus CDDP or carboplatin (Example 4); type: in vivo; details: mice; i.v. once in a three-week period
Description: The human lung cancer cell line Calu-6 was purchased from ATCC.
CPT-11, CDDP, and carboplatin were purchased from Daiichi Pharmaceuticals, Nippon Kayaku, and Bristol-Meyers Squibb, respectively.
Compound 2A, CPT-11, CDDP, and carboplatin were dissolved and diluted in a saline solution. […] CDDP and carboplatin were intravenously administered once in a three-week period.
In one therapeutic cycle, compound 2A and CPT-11 were administered once a week for three consecutive weeks, and CDDP and carboplatin were administered once in the three-week period.

For `CCCCCOC(=O)Nc1nc(=O)n([C@@H]2O[C@H](C)[C@@H](O)[C@H]2O)cc1F` [capecitabine], which “MTD (maximum tolerated dose)” value ([1]; mouse, in vivo, po) is on record?
Its value is 360 mg/kg/injection.

`Nc1ccn([C@@H]2O[C@H](CO)[C@@H](O)C2(F)F)c(=O)n1` [gemcitabine] was tested. Which “MTD (maximum tolerated dose)” value [2] did it give?
Its value is 400 mg/kg/injection.

What does the source list for `CCCCCN1C=Nc2cccc3nc4c(c1c23)Cn1c-4cc2c(c1=O)COC(=O)[C@@]2(CC)OC(=O)CN(C)C(=O)CN.Cl` [compound 2A, (9S)-9-ethyl-9-(glycyl-sarcosyloxy)-1-pentyl-1H,12H-pyrano[3″,4″:6′,7′]indolizino[1′,2′:6,5]pyrido[4,3,2-de]quinazoline-10,13(9H,15H)-dione hydrochloride]?
MTD (maximum tolerated dose) ([1]; mice, i.v. once during a three-week period, actually measured weight of the hydrochloride): 60 mg/kg/injection; MTD (maximum tolerated dose) as free base ([1]; mice, i.v. once during a three-week period, weight converted to free base): 47 mg/kg/injection

With `N.N.O=C([O-])C1(C(=O)[O-])CCC1.[Pt+2]` [carboplatin] as the compound, how does the “MTD (maximum tolerated dose)” value [3] read?
The value was 50 mg/kg/injection.
